A short description of this series: Kinetic study of ROS-mediated degradation of IR775S (fluorescence at 800 nm). As to conditions: presence of peroxynitrite (ONOO^−) and hypochlorite (ClO^−), 2 μM, 1×PBS pH=7.4. It is filed as physicochemical. On the procedure: FIGS. 26A and 26B illustrate a kinetic study of ROS-mediated degradation of 1R7755 by detecting its fluorescence decrease at 800 nm after addition of ROS.
FIG. 26B illustrates a time course of the fluorescence of 1R775S at 800 nm after addition of indicated ROS (FIG. 26B top: ONOO^−, ClO^−; FIG. 26B bottom: ^1O2 and H2O2) in 1×PBS (pH=7.4). [1R775]=1 μg/mL. [ROS]=2 μM.

Take `CN1C(=CC=C2CCCC(C=CC3=[N+](C)c4ccccc4C3(C)C)=C2SCCC(=O)O)C(C)(C)c2ccccc21.[O-][Cl+3]([O-])([O-])[O-]` [1R775S, 2-[4′-(β-carboxyethylthio)-7′-(1″,3″,3″-trimethylindolenine)-3′,5′-trimethyleneheptatrien-1-yl]-1,3,3-trimethylindolenium perchlorate]: the “degradation by ROS” value is listed as “nearly instant degradation”.

Values taken from patent US20150031996A1, “SEMICONDUCTING POLYMER NANOPARTICLES AS PHOTOACOUSTIC MOLECULAR IMAGING PROBES” (The Board of Trustees of the Leland Stanford Junior …, priority 2013, published 2015).
